Test results: US4103011A, “Novel penicillin compounds and process for preparation thereof” (priority 1976, dated 1978)
Converted amounts (≈) assume the structure as drawn. Where two headings read alike, the source gives them in different places.

What was measured:
[1] = test system: Staphylococcus aureus No. 50774; test: In vivo efficacy against systemic infection; design: species or system male mice (ddY); details: NO.50774, in Mus musculus, 336 h, sc, twice, about 5 minutes and 6 hours after infection, read-out: ED50 (median effective dose)
Protocol: (§1) The contents in the vials (No. A and No. C) prepared in Example 17 were each dissolved in deionized water, and injections having various concentrations were prepared.
Compounds A, B, F, G, H and M were dissolved in deionized water. Compounds C, D, E and J were dissolved in an aqueous solution of sodium carbonate (pH 8-9) to prepare injections of various concentrations.
Each of the injections was administered to mice under the conditions described below, and the median effective doses (ED50) obtained are shown in Table II.
(§2) Mice: male mice (ddY) weighting about 20g
Staphylococcus aureus No. 50774;
Intravenous infection with 50 to 100
LD50 (about 5 × 10^8cells/mouse) of a
bacterial suspension in saline.
(§3) twice, about 5 minutes and 6 hours after
Staphylococcus aureus No. 50774 14 days
The numerals in the table show ED50 (mg/kg). ED50 values were
(§4) calculated in accordance with the Behrens-Kaerber method [Arch. Exp. Path

20 strains of bacteria = test: In vitro antibacterial activity, overall conclusions; format: cell-based
Text: (§5) In vitro antibacterial activity against 20 strains of bacteria

[2] = test system: Pseudomonas aeruginosa No. 12; test: In vivo efficacy against systemic infection; design: species or system male mice (ddY); details: NO.12, in Mus musculus, twice, about 5 minutes and 6 hours after infection, read-out: ED50 (median effective dose)
Protocol: as §1
(§6) Compounds A, B, F, G, H and M were dissolved in deionized water.
as §2
Pseudomonas aeruginosa No. 12;
(§7) Intraperitoneal infection with 50 to
(§8) of a bacterial suspension in tryptosoy
as §3
Pseudomonas aeruginosa No. 12
as §4

Escherichia coli P-5101 [3] = test: In vivo efficacy against systemic infection; design: species or system male mice (ddY); details: P5101, in Mus musculus, 168 h, twice, about 5 minutes and 6 hours after infection, read-out: ED50 (median effective dose)
Protocol: as §1, §6, §2, §7, §8, §3, §4

[4] = test system: Enterobacter cloacae P-2540; test: In vitro antibacterial activity (MIC); format: cell-based
Text: as §5
(§9) The numerals in the table show minimum inhibitory concentrations (MIC)

Proteus mirabilis P-2381 = test: In vitro antibacterial activity (MIC); format: cell-based
Text: as §5, §9

[5] = test system: Staphylococcus aureus No. 50774; test: In vitro antibacterial activity (MIC); format: cell-based
Text: as §5, §9

Escherichia coli P-140a = test: In vitro antibacterial activity (MIC); format: cell-based
Text: as §5, §9

[6] = test system: Salmonella typhimurium S-9; test: In vitro antibacterial activity (MIC); format: cell-based; details: Salmonella enterica, read-out: minimum inhibitory concentration (MIC)
Text: as §5, §9

[7] = test system: Corynebacterium pyogenes C-21; test: In vitro antibacterial activity (MIC); format: cell-based; details: Rhodococcus (subgen. Prescottella) equi, C21; Corynebacterium pyogenes C-21; read-out: minimum inhibitory concentration (MIC)
Text: as §5, §9

[8] = test system: Staphylococcus aureus 209P JC-1; test: In vitro antibacterial activity (MIC); format: cell-based; details: Staphylococcus aureus 209P JC-1; read-out: minimum inhibitory concentration (MIC)
Text: as §5, §9

[9] = test system: Shigella flexneri 4a P-330; test: In vitro antibacterial activity (MIC); format: cell-based; details: 4AP330, read-out: minimum inhibitory concentration (MIC)
Text: as §5, §9

Proteus rettgeri P-2503 = test: In vitro antibacterial activity (MIC); format: cell-based; details: Providencia rettgeri, P2503; Proteus rettgeri P-2503; read-out: minimum inhibitory concentration (MIC)
Text: as §5, §9

Escherichia coli P-5101 [10] = test: In vitro antibacterial activity (MIC); format: cell-based
Text: as §5, §9

[11] = test system: Escherichia coli NIHJ JC-2; test: In vitro antibacterial activity (MIC); format: cell-based
Text: as §5, §9

[12] = test system: Streptococcus faecalis P-2473; test: In vitro antibacterial activity (MIC); format: cell-based; details: Enterococcus faecalis
Text: as §5, §9

[13] = test system: Salmonella enteritidis No. 1891; test: In vitro antibacterial activity (MIC); format: cell-based; details: Salmonella enterica, read-out: minimum inhibitory concentration (MIC)
Text: as §5, §9

[14] = test system: Pseudomonas aeruginosa No.12; test: In vitro antibacterial activity (MIC); format: cell-based; details: Pseudomonas aeruginosa No.12; read-out: minimum inhibitory concentration (MIC)
Text: as §5, §9

Proteus morganii Kono = test: In vitro antibacterial activity (MIC); format: cell-based; details: Morganella morganii, read-out: minimum inhibitory concentration (MIC)
Text: as §5, §9

Shigella flexneri 2a = test: In vitro antibacterial activity (MIC); format: cell-based; details: read-out: minimum inhibitory concentration (MIC)
Text: as §5, §9

[15] = test system: Pseudomonas aeruginosa Tsuchijima; test: In vitro antibacterial activity (MIC); format: cell-based; details: Pseudomonas aeruginosa Tsuchijima; read-out: minimum inhibitory concentration (MIC)
Text: as §5, §9

[16] = test system: Serratia mercescens IFO 3736; test: In vitro antibacterial activity (MIC); format: cell-based
Text: as §5, §9

[17] = test system: Streptococcus pyogenes 65A; test: In vitro antibacterial activity (MIC); format: cell-based; details: Streptococcus pyogenes 65A; read-out: minimum inhibitory concentration (MIC)
Text: as §5, §9

[18] = test system: Klebsiella pneumoniae No. 13; test: In vitro antibacterial activity (MIC); format: cell-based; details: Klebsiella pneumoniae No. 13; read-out: minimum inhibitory concentration (MIC)
Text: as §5, §9

For `CCn1cc(C(=O)O)c(=O)c2cnc(N3CCNCC3)nc21` [Compound J, 5,8-Dihydro-8-ethyl-2-(1-piperazinyl)-5-oxopyrido[2,3-d]pyrimidine-6-carboxylic acid], the ED50 [1] was > 50 mg/kg, the “antibacterial activity (in words)” value (20 strains of bacteria; against Gram-positive bacteria) was “inferior antibacterial activity against Gram-positive bacteria” and the “antibacterial activity (in words)” value (20 strains of bacteria; against Gram-positive bacteria, listed as Pipemidic acid) was “does not show any marked antibacterial activity against Gram-positive bacteria”. It also gave an ED50 ([2]; iv) of 42.7 mg/kg, an ED50 ([2]; sc) of 37.7 mg/kg and an ED50 (Escherichia coli P-5101 [3]; iv) of 4.6 mg/kg. The ED50 (Escherichia coli P-5101 [3]; sc) was 6.3 mg/kg, the MIC ([4]; Enterobacter cloacae, P2540, read-out: minimum inhibitory concentration (MIC)) was 1.56 µg/mL (≈ 5.14 µM) and the MIC (Proteus mirabilis P-2381; Proteus mirabilis, P2381, read-out: minimum inhibitory concentration (MIC)) was 3.13 µg/mL (≈ 10.3 µM). The MIC ([5]; Staphylococcus aureus, NO.50774, read-out: minimum inhibitory concentration (MIC)) was 25 µg/mL (≈ 82.4 µM), the MIC (Escherichia coli P-140a; Escherichia coli, read-out: minimum inhibitory concentration (MIC)) was 3.13 µg/mL (≈ 10.3 µM) and the MIC ([6]; TYPHIMURIUM) was 3.13 µg/mL (≈ 10.3 µM). It also gave an MIC [7] of 25 µg/mL (≈ 82.4 µM), an MIC [8] of 12.5 µg/mL (≈ 41.2 µM) and an MIC [9] of 1.56 µg/mL (≈ 5.14 µM). It also gave an MIC (Proteus rettgeri P-2503) of 6.25 µg/mL (≈ 20.6 µM), an MIC (Escherichia coli P-5101 [10]; Escherichia coli, P5101, read-out: minimum inhibitory concentration (MIC)) of 3.13 µg/mL (≈ 10.3 µM) and an MIC ([11]; Escherichia coli, NIHJJC2, read-out: minimum inhibitory concentration (MIC)) of 1.56 µg/mL (≈ 5.14 µM). For the same compound, the MIC ([12]; P2473, read-out: minimum inhibitory concentration (MIC)) was > 200 µg/mL, the MIC ([13]; ENTERITIDIS) was 1.56 µg/mL (≈ 5.14 µM) and the MIC [14] was 25 µg/mL (≈ 82.4 µM). For the same compound, the MIC (Proteus morganii Kono) was 3.13 µg/mL (≈ 10.3 µM), the MIC (Shigella flexneri 2a) was 3.13 µg/mL (≈ 10.3 µM) and the MIC [15] was 12.5 µg/mL (≈ 41.2 µM). The MIC ([16]; Serratia, IFO3736, read-out: minimum inhibitory concentration (MIC)) was 6.25 µg/mL (≈ 20.6 µM), the MIC [17] was > 100 µg/mL and the MIC [18] was 6.25 µg/mL (≈ 20.6 µM).

For `CC(=O)N1CCN(c2ncc3c(=O)c(C(=O)O)c[nH]c3n2)CC1` [Compound L, 5,8-Dihydro-2-(4-acetyl-1-piperazinyl)-5-oxopyrido[2,3-d]pyrimidine-6-carboxylic acid], the “antibacterial activity (in words)” value (20 strains of bacteria; in vitro, Table I) was “do not substantially show antibacterial activity”, the MIC ([4]; P2540, Enterobacter cloacae P-2540, read-out: minimum inhibitory concentration (MIC)) was > 200 µg/mL and the MIC (Proteus mirabilis P-2381; P2381, Proteus mirabilis P-2381, read-out: minimum inhibitory concentration (MIC)) was > 50 µg/mL. For the same compound, the MIC ([5]; Staphylococcus aureus No. 50774, read-out: minimum inhibitory concentration (MIC)) was > 50 µg/mL, the “minimum inhibitory concentration (MIC)” value (Escherichia coli P-140a) was > 200 µg/mL and the MIC ([6]; Salmonella typhimurium S-9) was > 50 µg/mL. The MIC [7] was > 50 µg/mL, the MIC [8] was > 50 µg/mL and the MIC [9] was > 100 µg/mL. The MIC (Proteus rettgeri P-2503) was > 100 µg/mL, the MIC (Escherichia coli P-5101 [10]; P5101, Escherichia coli P-5101, read-out: minimum inhibitory concentration (MIC)) was > 100 µg/mL and the MIC ([11]; NIHJJC2, Escherichia coli NIHJ JC-2, read-out: minimum inhibitory concentration (MIC)) was > 100 µg/mL. The MIC ([12]; P2473, Streptococcus faecalis P-2473, read-out: minimum inhibitory concentration (MIC)) was > 50 µg/mL, the MIC ([13]; Salmonella enteritidis No. 1891) was > 50 µg/mL and the MIC [14] was > 200 µg/mL. The MIC (Proteus morganii Kono; Proteus morganii Kono) was > 200 µg/mL, the MIC (Shigella flexneri 2a) was > 100 µg/mL and the MIC [15] was > 200 µg/mL. The MIC ([16]; IFO3736, Serratia mercescens IFO 3736, read-out: minimum inhibitory concentration (MIC)) was > 100 µg/mL, the MIC [17] was > 100 µg/mL and the MIC [18] was > 200 µg/mL.
